Read-outs that look alike come from different tables or passages of the source. Where a SMILES comes first, the peptide text is derived from it. Bridges are numbered along the chain shown (N, C = ends). [ ]: non-standard residue; d: D form. The star is where a group is joined. hPhe(3-Cl-4-CF3) = N[C@@H](CCc1ccc(C(F)(F)F)c(Cl)c1)C(=O)O; NPrPhe(4-CF3) = CCCN[C@@H](Cc1ccc(C(F)(F)F)cc1)C(=O)O; NMeGly(cPent) = CN[C@H](C(=O)O)C1CCCC1; NMeD = CN[C@@H](CC(=O)O)C(=O)O; NMeL = CN[C@@H](CC(C)C)C(=O)O; NMeAbu = CC[C@H](NC)C(=O)O; Morpholide = C1CN(*)CCO1; Ac4c = NC1(C(=O)O)CCC1; Sar = CNCC(=O)O
Columns and labels:
[1] = target: GDP-bound NRAS wild-type protein (Homo sapiens, UniProt P01111); test: Binding to NRAS by surface plasmon resonance (SPR), KD and KD ratio to KRAS
Protocol: Surface plasmon resonance was used to analyze the binding affinity of compounds for KRAS, NRAS, and HRAS. The apparatus used was Biacore 8K, 8K+, or T200 (GE Healthcare), and the running buffer used was HBS (10 mM HEPES-NaOH, 150 mM NaCl, pH 7.4) containing 1 mM DTT, 10 mM MgCl2, 0.01% Tween 20, 10 µM GDP, and 4% DMSO.
Biotinylated Avi-tag fusion KRAS, NRAS, and HRAS proteins were expressed in E. coli BL21 (DE3) strains, and after cells were homogenized, they were purified using Streptavidin Mutein Matrix and Superdex 75. After purification, GDP-loaded KRAS, NRAS, and HRAS proteins were immobilized on the surface of Sensor Chip CAP (Cytiva) coated with Biotin CAPture Reagent in an immobilization amount of about 100 to 300 RU. Binding of each compound was evaluated by the Single Cycle Kinetics method, and a running buffer or a compound solution was added to the RAS protein non-immobilized surface and the immobilized surface to obtain a binding response. The flow rate was set to 100 µL/min, and in the compound-adding cycle, compound solutions having different concentrations were intermittently added for 75 seconds each, starting from a low concentration. […] In the blank cycle, a running buffer was intermittently added and not the compound solution. The Biotin CAPture Reagent and RAS proteins were immobilized for each cycle, and at the end of each cycle, the sensor chip was regenerated by the regeneration solution appended to the Biotin CAPture Kit (Cytiva). Measurement was carried out at 30°C.
The resulting sensorgram was subjected to curve fitting based on a 1:1 binding model on Biacore Insight Evaluation Software or T200 Evaluation Software, and thereby the dissociation constant KD of each compound with respect to KRAS, NRAS, and HRAS was determined. […] Blank indicates a compound from which the KD value with respect to NRAS or HRAS was not obtained.

[2] = system: human lung cancer strain NCI-H441; type: cell-based
Outline: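 Step one: dispense the test compound in serial DMSO dilutions. Step three: add the reagent and measure […].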

[3] = target: HRAS wild-type protein (Homo sapiens, UniProt P01112); test: Binding to HRAS by surface plasmon resonance (SPR), KD and KD ratio to KRAS
Outline: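 Captured GDP-RAS (~100–300 RU) was exposed to increasing compound concentrations, 75 s per step, in running buffer with 10 µM GDP, 10 mM MgCl2 and 4% DMSO at pH 7.4.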

[4] = ratio of KD for GDP-bound NRAS wild-type protein to KD for KRAS
[5] = ratio of KD for HRAS wild-type protein to KD for KRAS
[6] = ratio of the KD value with respect to GDP-bound NRAS wild-type protein to the KD value with respect to KRAS
[7] = ratio of the KD value with respect to HRAS wild-type protein to the KD value with respect to KRAS

Sequence of HRAS wild-type protein (P01112 whole entry): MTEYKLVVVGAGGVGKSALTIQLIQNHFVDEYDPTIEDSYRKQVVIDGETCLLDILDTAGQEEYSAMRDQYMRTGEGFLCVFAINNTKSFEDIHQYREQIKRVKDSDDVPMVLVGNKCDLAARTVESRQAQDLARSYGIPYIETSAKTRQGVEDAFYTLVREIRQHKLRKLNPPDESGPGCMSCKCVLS
Sequence of GDP-bound NRAS wild-type protein (P01111 whole entry): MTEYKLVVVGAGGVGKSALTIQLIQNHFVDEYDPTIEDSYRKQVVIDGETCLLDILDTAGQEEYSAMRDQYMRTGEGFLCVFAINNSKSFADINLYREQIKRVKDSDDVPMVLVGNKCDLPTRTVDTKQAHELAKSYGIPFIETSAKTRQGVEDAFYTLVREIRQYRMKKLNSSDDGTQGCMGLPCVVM

Row | IC50 [2] | SMILES | NRAS /KRAS [1, 4] | HRAS /KRAS [3, 5] | NRAS /KRAS [1, 6] | HRAS /KRAS [3, 7] | IC50 ([2]; NCI-H441 cells, 4 days, CellTiter-Glo, read-out: NCl-H441 IC50)
1 | 20.3 nM | CCC[C@H]1C(=O)N[C@@H](C2CCCC2)C(=O)N(C)CC(=O)N(C)[C@H]2C/C=C\CCN(C2=O)[C@@H](Cc2ccc(C(F)(F)F)cc2)C(=O)N(C)CC(=O)N[C@@H](CCc2ccc(C(F)(F)F)c(Cl)c2)C(=O)N2CC3(CC3)C[C@H]2C(=O)NC2(CC(C)(C)C2)C(=O)N(C)[C@@H](CC(C)(C)C)C(=O)N(C)[C@H](C(=O)N(C)C)CC(=O)N1C [PP2981] | AA (a compound having 20 or more is denoted as AA) | A (a compound having 10 or more and less than 20 is denoted as A) |  |  | 
2 | 4700 nM | CCO[C@@H]1C[C@H]2C(=O)NC3(CCC3)C(=O)N(C)[C@@H](C3CCCC3)C(=O)N(C)[C@H](C(=O)N3CCOCC3)CC(=O)N(C)C[C@@H](C)C(=O)N[C@@H]([C@@H](C)CC)C(=O)N(C)CC(=O)N(C)[C@H]3CCCCN(C3=O)[C@@H](Cc3ccc(C(F)(F)F)cc3)C(=O)N(C)CC(=O)N[C@@H](CCc3cc(F)c(C(F)(F)F)c(F)c3)C(=O)N2C1 [PP0721] |  |  | B (a compound having 3 or more and less than 10 is denoted as B) | B (a compound having 3 or more and less than 10 is denoted as B) | 
3 | 24.7 nM | CCO[C@@H]1C[C@H]2C(=O)NC3(CC(C)(C)C3)C(=O)N(C)[C@@H](C(CC)CC)C(=O)N(C)[C@H](C(=O)N(C)C)CC(=O)N(C)[C@@H](C(C)C)C(=O)N[C@@H]([C@@H](C)CC)C(=O)N(C)CC(=O)N(C)[C@H]3C/C=C\CCN(C3=O)[C@@H](Cc3ccc(C(F)(F)F)cc3)C(=O)N(C)CC(=O)N[C@@H](CCc3ccc(C(F)(F)F)c(Cl)c3)C(=O)N2C1 [PP2140] |  |  | AA (a compound having 20 or more is denoted as AA) | A (a compound having 10 or more and less than 20 is denoted as A) | 
4 | 32.8 nM | CCCN1C(=O)CN(C)C(=O)CN(C)C(=O)[C@H]([C@@H](C)CC)NC(=O)[C@H](CC(C)C)N(C)C(=O)C[C@@H](C(=O)N2CCOCC2)N(C)C(=O)[C@H](C2CCCC2)N(C)C(=O)C2(CCC2)NC(=O)[C@H](CC)N(C)C(=O)[C@H](CCc2ccc(C(F)(F)F)c(Cl)c2)NC(=O)CN(C)C(=O)[C@@H]1Cc1ccc(C(F)(F)F)cc1 [PP1918] ([NMeL]I[Sar][Sar][NPrPhe(4-CF3)][Sar][hPhe(3-Cl-4-CF3)][NMeAbu][Ac4c][NMeGly(cPent)][NMeD]-Morpholide; lactam N-11) |  |  | B (a compound having 3 or more and less than 10 is denoted as B) | C (A compound having a KD ratio of 0.1 or more and less than 3 is denoted as C) | 
5 | 6.6 nM | CCCN(C)C(=O)[C@@H]1CC(=O)N(C)[C@@H](CC(F)F)C(=O)N[C@@H]([C@@H](C)CC)C(=O)N(C)CC(=O)N(C)[C@H]2C/C=C\CCN(C2=O)[C@@H](Cc2ccc(C(F)(F)F)cc2)C(=O)N(C)CC(=O)N[C@@H](CCc2ccc(C(F)(F)F)c(OC)c2)C(=O)N2C[C@H](OCC)C[C@H]2C(=O)NC2(CC(C)(C)C2)C(=O)N(C)[C@@H](C2CCCC2)C(=O)N1C [PP2010] |  |  | A (a compound having 10 or more and less than 20 is denoted as A) | B (a compound having 3 or more and less than 10 is denoted as B) | 
6 |  | CCC[C@H]1C(=O)N[C@@H]([C@@H](C)CC)C(=O)N(C)CC(=O)N(C)[C@H]2C/C=C\CCN(C2=O)[C@@H](Cc2ccc(C(F)(F)F)cc2)C(=O)N(C)CC(=O)N[C@@H](CCc2cc(F)c(C(F)F)c(OC)c2)C(=O)N2C[C@H](OCC)C[C@H]2C(=O)NC2(CC(C)(C)C2)C(=O)N(C)[C@@H](C2CCCC2)C(=O)N(C)[C@H](C(=O)N(C)C)CC(=O)N1C [PP2867] | A (a compound having 10 or more and less than 20 is denoted as A) | A (a compound having 10 or more and less than 20 is denoted as A) |  |  | 17.1 nM
